Our source for the Kd values is patent US20250011368A1, “DLL3 TARGETING PEPTIDES AND CONSTRUCTS THEREOF” (MARIANA ONCOLOGY INC., priority 2023, published 2025).

Broadly, the Kd is the free concentration of one partner at which half of the binding sites on the other are occupied at equilibrium, for simple one-to-one binding.

Numbered stars: 1 amine (or outer) side, 2 acyl side, 3 side chain; on linkers, the order of the positions; unused ones are H or OH. Bridge positions count the residues as written; N and C are the ends. Square brackets hold non-standard residues; d marks the D form. Side chains are listed from the residue outwards. Peptide text beside a SMILES is read from it. * marks the point of attachment. ξ: configuration not given here. X10 = C[N+](C)(CCNC(=O)CCOCCOCCOCCOCCOCCOCCOCCOCCNC(=O)CN1CCN(CC(=O)O)CCN(CC(=O)O)CCN(CC(=O)O)CC1)CC(=O)*; Ala(piperidin-4-yl) = O=C([C@H](CC1CCN([*:3])CC1)N[*:1])[*:2]; DOTA = O=C(O)CN1CCN(CC(=O)O)CCN(CC(=O)*)CCN(CC(=O)O)CC1; Trp(7-OMe) = COc1cccc2c(C[C@H](N)C(=O)O)c[nH]c12; Trp(7-aza) = N[C@@H](Cc1c[nH]c2ncccc12)C(=O)O; γGlu = O=C(O)[C@H](CCC(=O)[*:2])N[*:1]; 2Nal = N[C@@H](Cc1ccc2ccccc2c1)C(=O)O; β3hF = N[C@H](CC(=O)O)Cc1ccccc1; Cha = N[C@@H](CC1CCCCC1)C(=O)O; Chg = N[C@H](C(=O)O)C1CCCCC1; Octanoyl = CCCCCCCC(=O)*; Dab = NCC[C@H](N)C(=O)O; CH2 = C([*:1])[*:2]; Ahx = NCCCCCC(=O)O; ξP = O=C(O)C1CCCN1 Some results are limits rather than exact numbers.

The first assay concerns the target T1, human DLL3 (Homo sapiens, UniProt Q9NYJ7).
T1 sequence (Q9NYJ7 27-618): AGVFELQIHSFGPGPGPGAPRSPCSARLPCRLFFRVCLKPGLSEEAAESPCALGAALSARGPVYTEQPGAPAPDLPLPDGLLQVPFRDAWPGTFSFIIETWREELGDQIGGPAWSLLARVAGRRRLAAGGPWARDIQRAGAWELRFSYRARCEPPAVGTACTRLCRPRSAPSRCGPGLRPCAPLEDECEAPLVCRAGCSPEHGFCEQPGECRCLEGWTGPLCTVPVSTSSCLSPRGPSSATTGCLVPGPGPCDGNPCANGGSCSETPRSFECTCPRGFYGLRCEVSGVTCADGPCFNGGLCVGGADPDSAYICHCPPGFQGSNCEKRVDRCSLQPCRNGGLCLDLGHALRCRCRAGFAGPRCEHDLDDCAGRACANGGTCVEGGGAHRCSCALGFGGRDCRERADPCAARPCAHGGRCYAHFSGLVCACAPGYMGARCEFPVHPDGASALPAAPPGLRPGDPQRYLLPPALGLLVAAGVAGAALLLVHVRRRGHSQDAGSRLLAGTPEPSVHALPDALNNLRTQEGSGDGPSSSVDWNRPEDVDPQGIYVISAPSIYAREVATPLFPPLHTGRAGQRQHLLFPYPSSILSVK
Briefly: Affinity determination by Surface Plasmon Resonance (SPR).
Conditions: not given
It counts as binding. On the procedure: SPR studies were performed on the compounds disclosed herein using the following protocol.
Biotinylated target ligand human DLL3 was immobilized on a streptavidin sensor chip. A reference surface was set up for nonspecific binding and refractive index changes. For analysis of the kinetics of interactions, varying concentrations of samples were injected at a flow rate of 100 μL/minute using running buffer containing 20 mM phosphate buffer with 2.7 mM KCl, 137 mM NaCl, 0.05% Surfactant P20 and 2% DMSO. Sensorgram curves were fitted with 1:1 binding model, and affinity and kinetic parameters were obtained using Biacore Insight evaluation 4.0. software.
Regarding `CC[C@H](C)[C@H](NC(=O)[C@@H](NC(=O)[C@H](Cc1c[nH]c2ccccc12)NC(C)=O)[C@@H](C)O)C(=O)N[C@H]1CSSC[C@@H](C(=O)N[C@@H](Cc2c[nH]c3ccccc23)C(=O)N2CCC[C@H]2C(=O)N[C@H](CCCCNC(=O)C[N+](C)(C)CCNC(=O)CCOCCOCCOCCOCCOCCOCCOCCOCCNC(=O)CN2CCN(CC(=O)O)CCN(CC(=O)O)CCN(CC(=O)O)CC2)C(N)=O)NC(=O)[C@H](CC(=O)O)NC(=O)[C@H](Cc2c[nH]cn2)NC(=O)[C@H](Cc2ccc3ccccc3c2)NC(=O)[C@H](CC(N)=O)NC(=O)[C@H](CC(N)=O)NC1=O` [compound 363, Ac-W-T-I-C(3)-N-N-(2Nal)-H-D-C(3)-W-P-[D-Lys(SP6-PEG8-DOTA)]-NH2] (Ac-WTICNN[2Nal]HDCWP[dK](X10)-NH2; disulfide 4-10), the Kd was under 1 nM.

Still in this assay, the particulars now being: 25° C., biotinylated human DLL3 immobilized on streptavidin sensor chip, 1:1 binding model; read-out: SPR KD.
In the case of `CC(=O)N[C@@H](Cc1c[nH]c2ccccc12)C(=O)N[C@H](C(=O)N[C@H](C(=O)N[C@H]1CSSC[C@@H](C(=O)N[C@@H](Cc2c[nH]c3ccccc23)C(=O)N2CCC[C@H]2C(=O)N[C@H](CCCCNC(=O)CN2CCN(CC(=O)O)CCN(CC(=O)O)CCN(CC(=O)O)CC2)C(N)=O)NC(=O)[C@H](C)NC(=O)[C@H](Cc2cnc[nH]2)NC(=O)[C@H](Cc2ccc3ccccc3c2)NC(=O)[C@H](CC(N)=O)NC(=O)[C@H](CC2CCNCC2)NC1=O)C1CCCCC1)[C@@H](C)O` [compound 284, Ac-W-T-(Chg)-C(3)-[3-(4-piperidinyl)-Ala]-N-(2Nal)-H-(Ala)-C(3)-W-P-[D-Lys(DOTA)]-NH2] (Ac-WT[Chg]C[Ala(piperidin-4-yl)]N[2Nal]HACWP[dK](DOTA)-NH2; disulfide 4-10), the Kd was under 1 nM.

Turning to `CC[C@H](C)[C@H](NC(=O)[C@@H](NC(=O)[C@H](Cc1c[nH]c2ccccc12)NC(C)=O)[C@@H](C)O)C(=O)N[C@H]1CSSC[C@@H](C(=O)N[C@@H](Cc2c[nH]c3ccccc23)C(=O)N2CCC[C@H]2C(=O)N[C@H](CCCCNC(=O)CC[C@H](NC(=O)CC[C@H](NC(=O)CC[C@H](NC(=O)CN2CCN(CC(=O)O)CCN(CC(=O)O)CCN(CC(=O)O)CC2)C(=O)O)C(=O)O)C(=O)O)C(N)=O)NC(=O)[C@H](CC(=O)O)NC(=O)[C@H](Cc2cnc[nH]2)NC(=O)[C@H](Cc2ccc3ccccc3c2)NC(=O)[C@H](CC(N)=O)NC(=O)[C@H](CC(N)=O)NC1=O` [compound 355, Ac-W-T-I-C(3)-N-N-(2Nal)-H-D-C(3)-W-P-[D-Lys(gE-gE-gE-DOTA)]-NH2] (Ac-WTICNN[2Nal]HDCWP[dK]([γGlu-γGlu-γGlu-DOTA])-NH2; disulfide 4-10), the Kd is under 1 nM.

Consider `CCCCCCCC(=O)NCC[C@@H]1NC(=O)[C@@H](NC(=O)[C@@H](NC(=O)[C@@H](NC(=O)[C@H](Cc2c[nH]c3ccccc23)NC(C)=O)[C@@H](C)O)[C@@H](C)CC)CSSC[C@@H](C(=O)N[C@@H](Cc2c[nH]c3ccccc23)C(=O)N2CCC[C@H]2C(=O)N[C@H](CCCCNC(=O)CN2CCN(CC(=O)O)CCN(CC(=O)O)CCN(CC(=O)O)CC2)C(N)=O)NC(=O)[C@H](CC(=O)O)NC(=O)[C@H](Cc2cnc[nH]2)NC(=O)[C@H](Cc2c[nH]c3ccccc23)NC(=O)[C@H](CC(N)=O)NC1=O` [compound 91, Ac-W-T-I-C(3)-(DAB-4-NHCOC7H15)-N-W-H-D-C(3)-W-P-[D-Lys(DOTA)]-NH2] (Ac-WTIC[Dab](Octanoyl)NWHDCWP[dK](DOTA)-NH2; disulfide 4-10), for which the Kd is 10 to 100 nM.

With `CC[C@H](C)[C@H](NC(=O)[C@@H](NC(=O)[C@H](Cc1c[nH]c2c(OC)cccc12)NC(C)=O)[C@@H](C)O)C(=O)N[C@H]1CSSC[C@@H](C(=O)N[C@@H](Cc2c[nH]c3ccccc23)C(=O)N2CCC[C@H]2C(=O)N[C@H](CCCCNC(=O)CN2CCN(CC(=O)O)CCN(CC(=O)O)CCN(CC(=O)O)CC2)C(N)=O)NC(=O)[C@H](CC(=O)O)NC(=O)[C@H](Cc2cnc[nH]2)NC(=O)[C@H](Cc2ccc3ccccc3c2)NC(=O)[C@H](CC(N)=O)NC(=O)[C@H](CC(N)=O)NC1=O` [compound 344, Ac-(7MeO-Trp)-T-I-C(3)-N-N-W-H-D-C(3)-W-P-[D-Lys(DOTA)]-CONH2] (Ac-[Trp(7-OMe)]TICNN[2Nal]HDCWP[dK](DOTA)-NH2; disulfide 4-10), the Kd is under 1 nM.

`CC[C@H](C)[C@H](NC(=O)[C@@H](NC(=O)[C@H](Cc1c[nH]c2ccccc12)NC(C)=O)[C@@H](C)O)C(=O)N[C@H]1CSSC[C@@H](C(=O)N[C@@H](Cc2c[nH]c3ccccc23)C(=O)N2CCC[C@H]2C(=O)N[C@H](CCCCNC(=O)CN2CCN(CC(=O)O)CCN(CC(=O)O)CCN(CC(=O)O)CC2)C(N)=O)NC(=O)[C@H](CC(=O)O)NC(=O)[C@H](Cc2cnc[nH]2)NC(=O)[C@H](Cc2c[nH]c3ccccc23)NC(=O)[C@H](CCC(=O)O)NC(=O)[C@H](CC(N)=O)NC1=O` [compound 279, Ac-W-T-I-C(3)-N-Glu-W-H-D-C(3)-W-P-[D-Lys(DOTA)]-NH2] (Ac-WTICNEWHDCWP[dK](DOTA)-NH2; disulfide 4-10): the Kd is 1 to 10 nM.

In the case of `CC[C@H](C)[C@H](NC(=O)[C@@H](NC(=O)[C@H](Cc1c[nH]c2ccccc12)NC(C)=O)[C@@H](C)O)C(=O)N[C@H]1CSSC[C@@H](C(=O)N[C@@H](Cc2c[nH]c3ccccc23)C(=O)N2CCC[C@H]2C(=O)N[C@H](CCCCNC(=O)CN2CCN(CC(=O)O)CCN(CC(=O)O)CCN(CC(=O)O)CC2)C(N)=O)NC(=O)[C@H](CC(=O)O)NC(=O)[C@H](Cc2cnc[nH]2)NC(=O)[C@H](Cc2c[nH]c3c(OC)cccc23)NC(=O)[C@H](CC(N)=O)NC(=O)[C@H](CC(N)=O)NC1=O` [compound 296, Ac-W-T-I-C(3)-N-N-(7-MeO-W)-H-D-C(3)-W-P-[D-Lys(DOTA)]-NH2] (Ac-WTICNN[Trp(7-OMe)]HDCWP[dK](DOTA)-NH2; disulfide 4-10), the dissociation constant (Kd) was under 1 nM.

As for `CC[C@H](C)[C@H](NC(=O)[C@@H](NC(=O)[C@H](Cc1c[nH]c2ccccc12)NC(C)=O)[C@@H](C)O)C(=O)N[C@H]1CSCSC[C@@H](C(=O)N[C@@H](Cc2c[nH]c3ccccc23)C(=O)N2CCCC2C(=O)N[C@@H](CCCCNC(=O)CN2CCN(CC(=O)O)CCN(CC(=O)O)CCN(CC(=O)O)CC2)C(N)=O)NC(=O)[C@H](CC(=O)O)NC(=O)[C@H](Cc2cnc[nH]2)NC(=O)[C@H](Cc2ccc3ccccc3c2)NC(=O)[C@H](CC(N)=O)NC(=O)[C@H](CC(N)=O)NC1=O` (stereo partly drawn) [compound 329, Ac-W-T-I-C(1)-N-N-(2Nal)-H-D-C(1)-W-P-[L-Lys(DOTA)]-NH2] (Ac-WTICNN[2Nal]HDCW[ξP]K(DOTA)-NH2; linker 4-10 via CH2), the Kd was under 1 nM.

As for `CC[C@H](C)[C@H](NC(=O)[C@@H](NC(=O)[C@H](Cc1c[nH]c2ccccc12)NC(C)=O)[C@@H](C)O)C(=O)N[C@H]1CSSC[C@@H](C(=O)N[C@@H](Cc2c[nH]c3ccccc23)C(=O)N2CCC[C@H]2C(=O)NCCCCCC(=O)NCCCCCC(=O)N[C@H](CCCCNC(=O)CN2CCN(CC(=O)O)CCN(CC(=O)O)CCN(CC(=O)O)CC2)C(N)=O)NC(=O)[C@H](CC(=O)O)NC(=O)[C@H](Cc2cnc[nH]2)NC(=O)[C@H](Cc2ccc3ccccc3c2)NC(=O)[C@H](CC(N)=O)NC(=O)[C@H](CC(N)=O)NC1=O` [compound 372, Ac-W-T-I-C(3)-N-N-(2Nal)-H-D-C(3)-W-P-(Ahx)2-[D-Lys(DOTA)]-NH2] (Ac-WTICNN[2Nal]HDCWP[Ahx][Ahx][dK](DOTA)-NH2; disulfide 4-10), the Kd is under 1 nM.

As for `CC(=O)N[C@@H](Cc1c[nH]c2ccccc12)C(=O)N[C@H](C(=O)N[C@H](CC(=O)N[C@H]1CSSC[C@@H](C(=O)N[C@@H](Cc2c[nH]c3ccccc23)C(=O)N2CCC[C@H]2C(=O)N[C@H](CCCCNC(=O)CN2CCN(CC(=O)O)CCN(CC(=O)O)CCN(CC(=O)O)CC2)C(N)=O)NC(=O)[C@H](CC(=O)O)NC(=O)[C@H](Cc2c[nH]cn2)NC(=O)[C@H](Cc2c[nH]c3ccccc23)NC(=O)[C@H](CC(N)=O)NC(=O)[C@H](CC(N)=O)NC1=O)Cc1ccccc1)[C@@H](C)O` [compound 115, Ac-W-T-(2PhEt-A)-C(3)-N-N-W-H-D-C(3)-W-P-[D-Lys(DOTA)]-NH2] (Ac-WT[β3hF]CNNWHDCWP[dK](DOTA)-NH2; disulfide 4-10), the Kd lay within 1 to 10 nM.

For `CC(=O)N[C@@H](Cc1c[nH]c2ccccc12)C(=O)N[C@H](C(=O)N[C@@H](CC1CCCCC1)C(=O)N[C@H]1CSSC[C@@H](C(=O)N[C@@H](Cc2c[nH]c3ncccc23)C(=O)N2CCC[C@H]2C(=O)N[C@H](CCCCNC(=O)CN2CCN(CC(=O)O)CCN(CC(=O)O)CCN(CC(=O)O)CC2)C(N)=O)NC(=O)[C@H](CC(=O)O)NC(=O)[C@H](Cc2cnc[nH]2)NC(=O)[C@H](Cc2ccc3ccccc3c2)NC(=O)[C@H](C)NC(=O)[C@H](CC(N)=O)NC1=O)[C@@H](C)O` [compound 198, Ac-W-T-(CHA)-C(3)-N-A-(2Nal)-H-D-C(3)-(7-Aza-W)-P-[D-Lys(DOTA)]-NH2] (Ac-WT[Cha]CNA[2Nal]HDC[Trp(7-aza)]P[dK](DOTA)-NH2; disulfide 4-10), the Kd is under 1 nM.
